# Source: paper PMC3715522, “Characterization of Fructose-1,6-Bisphosphate Aldolase during Anoxia in the Tolerant Turtle, Trachemys scripta elegans: An Assessment of Enzyme Activity, Expression and Structure” (PLoS ONE, 2013)
# Test system: T1, turtle liver aldolase (ALDOA/ALDOB, suggested heterotetramer)
# T1 construct: native, purified from liver of normoxic adult females (DEAE+, two Cibacron Blue steps); ~37 kDa subunit
# Test: coupled NADH assay (alpha-glycerophosphate dehydrogenase / triose phosphate isomerase), […] nm
# Format: biochemical, Trachemys scripta elegans
# Details: enzyme from normoxic liver; 100 mM KPi pH 7.2, 10 mM EDTA, 25 °C; A/B isoenzyme mixture or heterotetramer
row,Km,SMILES
1,~14 mM,"O=P(O)(O)OCC1(O)O[C@H](CO)[C@@H](O)[C@@H]1O (some centres unmarked) [F1P, fructose-1-phosphate]"
2,0.00024 ± 3e-05 mM,"O=P(O)(O)OC[C@H]1OC(O)(COP(=O)(O)O)[C@@H](O)[C@@H]1O (some centres unmarked) [FBP, fructose-1,6-bisphosphate]"
